Counter-ions that a name gives are not always drawn.
Assays:
Type in all cases: cell-based
[1] = target: T1, human ERG (ether-a-go-go related gene) potassium channel (Homo sapiens, UniProt Q12809); experiment: hERG channel whole-cell patch clamp (Ion Channel Activity Measurement); conditions: room temperature; for hERG 1 μM (ion-channel inhibition): 1 μM test article; for hERG 10 μM (ion-channel inhibition): 10 μM test article
T1 construct: expressed in transfected cells; host or cells: HEK293
Outline: (§1)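 HEK293 cells stably expressing hERG (NM_000238) were recorded by whole-cell patch clamp at 23-25° C. Holding potential −80 mV, step to 30 mV for 2.5 s, tail currents at −50 mV for 4 s, pulses every 10 s. Each concentration was perfused low to high for 5 min or to steady state, with each cell as its own control.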

[2] = target: T2, human calcium channel, voltage-dependent, L type (CaV1.2: CACNA1C, CACNB2, CACNA2D1) (Homo sapiens, UniProt Q13936); experiment: CaV1.2 channel whole-cell patch clamp (Ion Channel Activity Measurement); conditions: room temperature; for Cav1.2 1 μM (ion-channel inhibition): 1 μM test article; for CaV 1.2 10 μM (ion-channel inhibition): 10 μM test article
T2 construct: expressed in transfected cells; host or cells: CHO
Outline: (§2)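 Whole-cell patch clamp was run on CHO cells stably expressing CACNA1C/CACNB2/CACNA2D1 at 23–25 °C, with 10 mM CaCl2 TEA bath (pH 7.4) and CsCl pipette solution (pH 7.2). Currents were evoked from −80 mV to +10 mV for 0.3 s every 20 s without leak subtraction. Ascending concentrations were each applied for 5 min or until steady state.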

[3] = target: T3, Iks potassium voltage-gated channel (KCNQ1 and KCNE1) (Homo sapiens, UniProt P51787); experiment: Iks channel whole-cell patch clamp (Ion Channel Activity Measurement); conditions: room temperature
T3 construct: expressed in transfected cells; host or cells: CHO
T3 sequence (P51787 whole entry): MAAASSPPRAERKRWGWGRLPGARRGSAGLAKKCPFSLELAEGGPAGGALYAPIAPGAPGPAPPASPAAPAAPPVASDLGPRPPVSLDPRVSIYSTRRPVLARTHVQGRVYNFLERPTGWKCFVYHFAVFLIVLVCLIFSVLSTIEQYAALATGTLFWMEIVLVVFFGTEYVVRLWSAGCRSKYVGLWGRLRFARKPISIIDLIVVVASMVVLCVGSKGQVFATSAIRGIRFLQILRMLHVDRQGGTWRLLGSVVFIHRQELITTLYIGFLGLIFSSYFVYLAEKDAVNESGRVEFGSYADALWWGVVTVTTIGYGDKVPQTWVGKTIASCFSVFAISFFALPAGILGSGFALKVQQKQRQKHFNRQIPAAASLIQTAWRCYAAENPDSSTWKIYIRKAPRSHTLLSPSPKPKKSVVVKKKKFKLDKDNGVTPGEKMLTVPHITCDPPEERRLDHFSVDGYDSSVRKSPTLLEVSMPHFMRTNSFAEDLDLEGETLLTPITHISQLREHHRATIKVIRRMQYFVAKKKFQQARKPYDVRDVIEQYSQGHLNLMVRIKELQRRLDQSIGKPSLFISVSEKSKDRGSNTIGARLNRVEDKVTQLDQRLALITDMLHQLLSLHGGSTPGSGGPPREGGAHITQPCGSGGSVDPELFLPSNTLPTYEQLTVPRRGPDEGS

[4] = target: T4, hERG (human ether-a-go-go related gene potassium channel, KCNH2) (Homo sapiens, UniProt Q12809); experiment: hERG channel whole-cell patch clamp (Ion Channel Activity Measurement); conditions: human, HEK293 cells expressing the human ERG potassium channel, room temperature; for inhibition at 1 μM: pH 7.4, 1 μM test article; for inhibition at 10 μM: pH 7.4, 10 μM test article
T4 construct: expressed in transfected cells; host or cells: HEK293
T4 sequence (Q12809 whole entry): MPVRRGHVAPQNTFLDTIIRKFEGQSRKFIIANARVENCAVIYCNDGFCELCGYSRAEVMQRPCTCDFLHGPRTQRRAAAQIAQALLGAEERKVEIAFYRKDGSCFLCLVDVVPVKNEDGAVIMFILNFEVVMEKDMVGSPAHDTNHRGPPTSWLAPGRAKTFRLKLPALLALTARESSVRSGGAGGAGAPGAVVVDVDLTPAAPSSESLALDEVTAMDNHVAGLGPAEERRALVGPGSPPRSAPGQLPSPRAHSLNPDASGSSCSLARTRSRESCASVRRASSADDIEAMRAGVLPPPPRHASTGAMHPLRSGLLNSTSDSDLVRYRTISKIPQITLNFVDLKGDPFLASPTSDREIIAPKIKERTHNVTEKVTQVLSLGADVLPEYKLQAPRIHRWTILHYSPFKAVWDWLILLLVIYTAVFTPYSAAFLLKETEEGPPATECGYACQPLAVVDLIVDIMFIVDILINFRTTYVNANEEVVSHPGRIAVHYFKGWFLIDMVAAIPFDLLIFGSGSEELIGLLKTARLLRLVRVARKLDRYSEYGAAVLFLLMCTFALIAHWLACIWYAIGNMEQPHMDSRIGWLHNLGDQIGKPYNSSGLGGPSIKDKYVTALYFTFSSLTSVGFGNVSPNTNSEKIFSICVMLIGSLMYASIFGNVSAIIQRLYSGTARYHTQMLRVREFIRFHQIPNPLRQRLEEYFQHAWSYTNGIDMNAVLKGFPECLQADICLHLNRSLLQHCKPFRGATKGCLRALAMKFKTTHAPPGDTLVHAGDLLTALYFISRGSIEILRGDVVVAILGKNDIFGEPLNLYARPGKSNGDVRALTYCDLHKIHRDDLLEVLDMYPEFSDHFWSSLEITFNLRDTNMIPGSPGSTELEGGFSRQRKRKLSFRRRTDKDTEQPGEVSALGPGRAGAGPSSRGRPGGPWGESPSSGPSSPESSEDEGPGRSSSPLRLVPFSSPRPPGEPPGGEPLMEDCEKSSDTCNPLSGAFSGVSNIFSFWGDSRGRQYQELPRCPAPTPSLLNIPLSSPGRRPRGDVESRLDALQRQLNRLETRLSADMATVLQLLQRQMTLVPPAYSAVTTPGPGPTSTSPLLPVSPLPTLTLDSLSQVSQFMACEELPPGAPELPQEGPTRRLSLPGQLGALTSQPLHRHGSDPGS
Outline: as §1

[5] = target: T5, CaV1.2 (L-type voltage-dependent calcium channel; CACNA1C, CACNB2, CACNA2D1) (Homo sapiens, UniProt Q13936); experiment: CaV1.2 channel whole-cell patch clamp (Ion Channel Activity Measurement); conditions: human, room temperature; for inhibition at 5 min, 1 μM: pH 7.4, 1 μM test article; for inhibition at 5 min, 10 μM: pH 7.4, 10 μM test article, read-out: CaV 1.2 10 μM (ion-channel inhibition)
T5 construct: expressed in transfected cells; host or cells: CHO
Outline: as §2

[6] = target: T6, Iks potassium channel (KCNQ1/KCNE1) (Homo sapiens, UniProt P51787); experiment: Iks channel whole-cell patch clamp (Ion Channel Activity Measurement); conditions: human, CHO cells stably expressing Iks channel (KCNQ1 and KCNE1), room temperature; for inhibition at 5 min, 1 μM: pH 7.4, 1 μM test article; for inhibition at 5 min, 10 μM: pH 7.4, 10 μM test article
T6 construct: expressed in transfected cells; host or cells: CHO
T6 sequence (P51787 whole entry): as the sequence (P51787 whole entry) above

T1 sequence (Q12809 whole entry): as the sequence (Q12809 whole entry) above

Row | SMILES | inhibition at 5 min, 1 μM [6] | inhibition at 5 min, 10 μM [6] | hERG 1 μM (ion-channel inhibition) [1] | hERG 10 μM (ion-channel inhibition) [1] | Cav1.2 1 μM (ion-channel inhibition) [2] | CaV 1.2 10 μM (ion-channel inhibition) [2] | Iks 1 μM (ion-channel inhibition) ([3]; 1 μM test article) | Iks 10 μM (ion-channel inhibition) ([3]; 10 μM test article) | inhibition at 1 μM [4] | inhibition at 10 μM [4] | inhibition at 5 min, 1 μM [5] | inhibition at 5 min, 10 μM [5]
1 | Oc1cccc(-c2ccccc2)c1Cc1c(O)cccc1-c1ccccc1 [Compound A034, 2,2″-methylenebis(([1,1′-biphenyl]-3-ol))] |  |  | D (D = <25%) | D (D = <25%) | D (D = <25%) | B (B = = 50-75%) |  |  |  |  |  | 
2 | CCN(CC)CCOc1ccc2ccccc2c1Cc1c(O)ccc2ccccc12.O=CO [Compound A093, 1-((2-(2-(diethylamino)ethoxy)naphthalen-1-yl)methyl)naphthalen-2-ol formate] |  |  | A (A = 75-100%) | A (A = 75-100%) | C (C = 25-50%) | A (A = 75-100%) | D (D = <25%) | A (A = 75-100%) |  |  |  | 
3 | CCN(CC)CCOc1ccc2ccccc2c1Sc1c(O)ccc2ccccc12 [Compound A151, 1-((2-(2-(diethylamino)ethoxy)naphthalen-1-yl)thio)naphthalen-2-ol] | 25 to 50% | 75 to 100% |  |  |  |  |  |  | 75 to 100% | 75 to 100% | < 25% | 75 to 100%

More lines, main results first:

Row | inhibition at 5 min, 1 μM [6] | inhibition at 5 min, 10 μM [6] | SMILES | hERG 1 μM (ion-channel inhibition) [1] | hERG 10 μM (ion-channel inhibition) [1] | Cav1.2 1 μM (ion-channel inhibition) [2] | CaV 1.2 10 μM (ion-channel inhibition) [2] | Iks 1 μM (ion-channel inhibition) ([3]; 1 μM test article) | Iks 10 μM (ion-channel inhibition) ([3]; 10 μM test article) | inhibition at 1 μM [4] | inhibition at 10 μM [4] | inhibition at 5 min, 1 μM [5] | inhibition at 5 min, 10 μM [5]
4 | < 25% | 50 to 75% | CCN(CC)CCOc1ccc2ccccc2c1Sc1c(OC)ccc2ccccc12 [Compound A152, N,N-diethyl-2-((1-((2-methoxynaphthalen-1-yl)thio)naphthalen-2-yl)oxy)ethan-1-amine] |  |  |  |  |  |  | 75 to 100% |  | < 25% | 75 to 100%
5 | < 25% |  | CC[N+](C)(CC)CCOc1ccc2ccccc2c1Sc1c(OC)ccc2ccccc12 [Compound A191, diethyl(2-((1-((2-methoxynaphthalen-1-yl)thio)naphthalen-2-yl)oxy)ethyl)(methyl)-14-azane, iodide salt] |  |  |  |  |  |  | 75 to 100% | 75 to 100% | 25 to 50% | 75 to 100%

Reference: US12187681B2 (Shanghai East Hospital, priority 2019, dated 2025)
